Experiments:
[1] = Thermodynamic aqueous solubility of a crystalline solid (Example 33); format: physicochemical; settings: aqueous phosphate buffer, thermodynamic from solid, pH 6.5 buffer, 24 hours at room temperature
Protocol: General method to measure the thermodynamic aqueous solubility of a crystalline, organic solid.
To make a 0.03 M (30 mM) Phosphate Buffer (25° C.) at pH 7.4, the above recipe was adjusted as follows: 6.72 mL of 1 M potassium phosphate (monobasic) were mixed with 23.28 mL of 1 M potassium phosphate (dibasic) and diluted to one liter with water. The pH was adjusted with HCl or NaOH. Alternatively, 0.9144 g (6.72×10^−3 mol) of potassium phosphate monobasic were mixed with 4.0908 g (23.28×10^−3 mol) of potassium phosphate dibasic and diluted to 1 L with water to get a 30 mM solution of Phosphate Buffer (25° C.).
2. Aqueous phosphate buffer, 30 mM, adjusted to pH 6.5
1. ˜0.5 mg of compound were dissolved in 2.5% DMSO/MeOH (or other organic) to a final concentration of 250 μg/mL stock
• 1. ≥0.5 mg of compound were accurately weighed into a 4-mL vial for each pH to be tested. • 2. The appropriate amount of desired buffer was added to the appropriate vials to get a resulting concentration of 1.02 mg/mL. • 3. Vials were capped and shaken at 350 rpm for 24 hours at room temperature. • 4. ˜450 μL of sample solutions were pipetted from 4-mL vials into 96 DWP. • 5. The plate was centrifuged at 3500 rpm for 10 minutes at 20° C. and 250 μL of supernatant were transferred to catch plate. • 6. […]
4. The model was used to quantify the amount of compound in the aqueous solutions. […]

[2] = tested on: Cryopreserved human hepatocytes; assay: In vitro metabolic stability in human hepatocytes (Example 34); format: in vitro ADME; settings: 1 μM, predicted hepatic extraction ratio
Protocol: (§1) In vitro metabolic stabilities were studied at a concentration of 1 μM in the presence of liver microsomes and isolated hepatocytes.
(§2) A stock solution of the test compound was prepared at 10 mM (active compound) in DMSO. The in vitro stability of the test compound (1 μM) was assessed in the presence of hepatocytes as follows. Cryopreserved hepatocytes were thawed, isolated from shipping media and diluted to a density of 1×10^6 viable cells/mL, according to the supplier's guidelines, using Dulbecco's Modified Eagle Medium, 1×, high glucose (DMEM, Invitrogen, Carlsbad, Calif.). Viability was determined by trypan blue exclusion using a hemocytometer (3500 Hausser, VWR, West Chester, Pa.). […]
(§3) Data were acquired and peak areas were calculated for test compounds and the internal standard using Analyst 1.6.1 software (Sciex). […]
(§4) All calculations were performed using BioAssay Enterprise. The mean peak area ratios were calculated by averaging the peak area ratios (n=2) of test compound and the internal standard for each sample. Percent remaining was calculated by determining the ratio of the peak area ratio at each time point to the peak area ratio of the time-zero samples. The rate of loss of test compound (km) was determined by linear regression of—1n(f(t)) versus time. […] The t½ was determined dividing 1n(2) by km. […]

[3] = tested on: Rat cryopreserved hepatocytes; assay: In vitro metabolic stability in rat hepatocytes (Example 34); format: in vitro ADME, Sprague Dawley rat; settings: 1 μM, predicted hepatic extraction ratio
Protocol: as §1, §2, §3, §4

| Compound | solubility at 24 h [1] [µg/mL] | Human Hepatocyte Clearance (% ER) [2] [% ER] | Rat Hepatocyte Clearance (% ER) [3] [% ER] |
| --- | --- | --- | --- |
| C[C@@H]1CCc2ncc(F)cc2[C@H]2CCCN2c2ccn3ncc(c3n2)C(=O)N1 [Formula I] | 111 | 48 | 64 |
| C[C@H]1CCc2ncc(F)cc2[C@H]2CCCN2c2ccn3ncc(c3n2)C(=O)N1 [formula I′] | 43 | 74 | 83 |
